Experimental findings from ChEMBL document CHEMBL5728776, “Hydrocarbylsulfonyl-substituted pyridines and their use in the treatment of cancer” (2021) are described below.

Test [1] deals with T1, Glutathione reductase, mitochondrial (Homo sapiens, UniProt P00390).
T1 sequence (P00390 whole entry): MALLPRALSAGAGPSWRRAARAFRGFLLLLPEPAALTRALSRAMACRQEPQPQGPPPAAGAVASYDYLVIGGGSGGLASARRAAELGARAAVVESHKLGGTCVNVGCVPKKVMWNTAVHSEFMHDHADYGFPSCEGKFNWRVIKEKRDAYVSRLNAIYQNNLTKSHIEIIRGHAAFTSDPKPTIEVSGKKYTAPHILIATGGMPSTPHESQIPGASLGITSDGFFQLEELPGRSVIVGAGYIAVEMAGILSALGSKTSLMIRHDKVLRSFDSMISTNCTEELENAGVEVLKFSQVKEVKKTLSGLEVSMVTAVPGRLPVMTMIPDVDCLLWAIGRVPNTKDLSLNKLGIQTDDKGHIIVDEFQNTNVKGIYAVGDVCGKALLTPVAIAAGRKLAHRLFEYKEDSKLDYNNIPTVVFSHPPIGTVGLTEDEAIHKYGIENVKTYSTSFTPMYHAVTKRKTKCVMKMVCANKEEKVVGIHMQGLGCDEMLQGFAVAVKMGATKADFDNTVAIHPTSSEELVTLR
In words: (§1) Inhibition of Recombinant TrxR1: Small molecule inhibition of recombinant thioredoxin reductase 1 (TrxR1) and gluthathione reductase (GR) was examined in 96-well plate format. 30 nM TrxR1 was incubated in the presence of 250 μM NADPH, 0.1 mg/ml BSA, and various concentrations of compound (1% DMSO final) in 50 mM Tris (pH 7.5) and 2 mM EDTA buffer for 15 minutes. Following the incubation period, 2 mM DTNB was added to each well and the change in O.D. at 412 nm was followed. Percent activity was determined using DMSO vehicle and no TrxR1 (blank) controls. 2 nM GR was incubated in the presence of 250 μM NADPH, 0.1 mg/ml BSA, and various concentrations of compounds (1% DMSO final) in 50 mM Tris (pH 7.5) and 2 mM EDTA buffer for 15 minutes. Following the incubation period, 1 mM GSSG was added to each well and the change in O.D. at 340 nm was followed. Percent activity was determined using DMSO vehicle and no GR (blank) controls.

The target in test [2] is T2, Thioredoxin reductase 1, cytoplasmic (Homo sapiens, UniProt Q16881).
T2 sequence (Q16881 whole entry): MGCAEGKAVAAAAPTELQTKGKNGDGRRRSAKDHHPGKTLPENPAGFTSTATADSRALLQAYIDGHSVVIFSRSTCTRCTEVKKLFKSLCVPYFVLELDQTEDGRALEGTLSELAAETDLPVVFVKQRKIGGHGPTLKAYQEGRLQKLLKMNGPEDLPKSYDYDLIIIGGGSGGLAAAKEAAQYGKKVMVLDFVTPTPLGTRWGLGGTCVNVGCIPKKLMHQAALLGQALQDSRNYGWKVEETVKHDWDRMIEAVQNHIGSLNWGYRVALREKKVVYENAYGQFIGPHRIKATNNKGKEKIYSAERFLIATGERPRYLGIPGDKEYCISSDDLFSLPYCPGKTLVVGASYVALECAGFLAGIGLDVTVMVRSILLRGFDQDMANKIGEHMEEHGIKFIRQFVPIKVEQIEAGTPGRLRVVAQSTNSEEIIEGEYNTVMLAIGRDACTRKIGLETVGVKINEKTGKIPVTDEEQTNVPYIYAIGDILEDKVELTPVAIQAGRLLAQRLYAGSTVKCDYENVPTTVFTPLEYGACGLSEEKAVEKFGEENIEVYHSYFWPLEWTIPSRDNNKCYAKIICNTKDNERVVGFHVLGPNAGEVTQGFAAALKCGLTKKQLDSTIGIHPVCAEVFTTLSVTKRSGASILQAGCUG
Described as §1.

SMILES strings stand for the structures.

Turning to `CN(C)c1ccc([N+](=O)[O-])c(S(=O)(=O)Cc2ccccc2)n1`, the half-inhibitory concentration (IC50) was over 100000 nM in test [1] and 276 nM in test [2].

What is called IC50 is the concentration that inhibits the measured activity by half.
